Two compounds from publication PMC12238850, “Molecular determinants for recognition of serotonylated chromatin” (Nucleic Acids Research, 2025) can be followed below.

In this test the target is T1, Taf3-PHD P881E–W894F (Mus musculus, UniProt Q5HZG4, P881E/W894F).
T1 construct: Mus musculus Taf3-PHD domain (residues 857–924); GST (N, cleaved yes); made in house; host or cells: E. coli BL21(DE3), M9 minimal medium (13C/15N)
T1 sequence (Q5HZG4 857-924 P881E/W894F): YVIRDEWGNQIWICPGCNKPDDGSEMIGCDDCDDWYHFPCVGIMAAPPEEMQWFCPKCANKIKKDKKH
The test is described as follows: NMR titration line shape analysis (TITAN), double mutant Taf3-PHD. Type of test: binding. As to the method: The ^13C- and ^15N-labelled Taf3-PHD NMR samples were purified as described above, with minor differences. A single colony of freshly transformed BL21(DE3) E. coli was grown in a synthetic M9 minimal medium (6.0 g/l Na2HPO4·2H2O, 3.0 g/l KH2PO4, 0.5 g/l NaCl, 25 mg/l MgSO4, 290 μg/l CaCl2, 1 μg/l FeSO4·7H2O, 270 μg/l ZnCl2, and 5 mg/l thiamine) containing 2.0 g/l ^13C-glucose as the only carbon source and 0.5 g/l ^15NH4Cl as the sole nitrogen source. Protein expression, lysis, and loading to Glutathione Sepharose™ column were performed as described above. The GST-tag was removed through on-column thrombin digestion by loading excess thrombin (SERVA) in wash buffer followed by overnight digestion at 4°C. The cleaved PHD moiety with a […] N-terminal extension (Gly–Ser–His–Met–Ala–Met–Ala) remaining from the thrombin cleavage site was collected from the flow-through and further purified in a Mono Q™ 10/100 GL as before and subsequently loaded to a Superdex-75 HiLoad 16/600 gel filtration column in NMR buffer (20 mM KPi, pH 7.0, 150 mM KCl, 10 μM ZnCl2) (Supplementary Fig. S1).
All data were recorded at 298 K on a Bruker Avance III HD 900 MHz spectrometer equipped with a cryoprobe, unless noted otherwise. Sample for assignment verification contained 0.3 mM ^13C- and ^15N-labelled PHD finger of Taf3 (residues 857–924) in NMR buffer (20 mM KPi, pH 7.0, 150 mM KCl, 10 μM ZnCl2, 0.01% NaN3, 10% D2O) in a 5-mm NMR tube. Samples for peptide interaction studies contained 0.19 mM ^13C- and ^15N-labelled PHD in NMR buffer in 3-mm NMR tubes. Lyophilized peptides were dissolved in NMR buffer including 1 mM sodium 3-(trimethylsilyl)tetradeuteriopropanionate (TSP) into 20 mM stock solutions. Upon dilution to 1 mM, all peptide solutions were at pH 7.0 in NMR buffer. Peptide concentrations were determined by comparing the integral of the Thr methyl signal (from T3, T6, and T11, total nine protons) to that of TSP using a quantitative 1D experiment (recycle delay 60 s) recorded at a Bruker Avance III 600 MHz spectrometer. Saturated complexes with H3K4me1/H3K4me2/H3K4me3 peptides with and without H3Q5ser were made by adding peptide to a 0.7 mM final concentration (3.6 equiv.). […] Additional samples were prepared using 30%, 50%, 80%, and 160% equiv. of peptide. All spectra were recorded and processed using Bruker Topspin and analysed using NMR-FAM Sparky and Poky.
For the H3K4me2 complexes, the resonance of G879 was excluded due to overlap and that of K875 was included. Spectra were processed using NMRPipe using exponential line broadening of 10/15 Hz in the direct/indirect dimension of the free induction decay before Fourier transform. Data were fit against a 1:1 binding model that also optimizes the ligand concentration to compensate for concentration errors. […]

Read-outs that look alike come from different tables or passages of the source.

As usually defined, the koff is a measure of how fast the partners let go of each other. `C[C@H](N)C(=O)N[C@@H](CCCNC(=N)N)C(=O)N[C@H](C(=O)N[C@@H](CCCC[N+](C)(C)C)C(=O)N[C@@H](CCC(=O)NCCc1c[nH]c2ccc(O)cc12)C(=O)N[C@H](C(=O)N[C@@H](C)C(=O)N[C@@H](CCCNC(=N)N)C(=O)N[C@@H](CCCCN)C(=O)N[C@@H](CO)C(=O)N[C@H](C(=O)NCC(N)=O)[C@@H](C)O)[C@@H](C)O)[C@@H](C)O` [H3K4me3Q5ser] displayed a koff of 24.2 ± 0.9 s⁻¹. Further, the koff (read-out: koff 95% confidence limits) lay within 18 to 33 s⁻¹.
Regarding `C[C@H](N)C(=O)N[C@@H](CCCNC(=N)N)C(=O)N[C@H](C(=O)N[C@@H](CCCC[N+](C)(C)C)C(=O)N[C@@H](CCC(N)=O)C(=O)N[C@H](C(=O)N[C@@H](C)C(=O)N[C@@H](CCCNC(=N)N)C(=O)N[C@@H](CCCCN)C(=O)N[C@@H](CO)C(=O)N[C@H](C(=O)NCC(N)=O)[C@@H](C)O)[C@@H](C)O)[C@@H](C)O` [H3K4me3], the koff is 29.6 ± 0.9 s⁻¹ (NMR line shape fit (TITAN), P881E–W894F mutant, average ± standard error from bootstrap, read-out: koff) and 22 to 40 s⁻¹ (NMR line shape fit (TITAN), P881E–W894F mutant, read-out: koff 95% confidence limits).
